{"source": "ChEMBL document CHEMBL1201862", "about": "“PubChem BioAssay data set” (2004)", "test_in_all_cases": "growth of human tumour cells (NCI), 48 h", "key": {"SK-OV-3": {"test_system": "SK-OV-3"}, "RPMI-8226": {"test_system": "RPMI-8226"}, "HCT-15": {"test_system": "HCT-15"}, "U-251": {"test_system": "U-251"}, "UACC-62": {"test_system": "UACC-62"}, "OVCAR-8": {"test_system": "OVCAR-8"}, "SR": {"test_system": "SR"}, "HT-29": {"test_system": "HT-29"}, "SF-295": {"test_system": "SF-295"}, "SN12C": {"test_system": "SN12C"}, "UACC-257": {"test_system": "UACC-257"}, "HOP-62": {"test_system": "HOP-62"}, "Malme-3M": {"test_system": "Malme-3M"}, "IGROV-1": {"test_system": "IGROV-1"}, "SK-MEL-5": {"test_system": "SK-MEL-5"}, "K562": {"test_system": "K562"}, "A498": {"test_system": "A498"}}, "note": "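Grown in 96-well plates, cells were treated for 48 hours with each compound at five concentrations. Insufficient inhibition: endpoint recorded as highest concentration tested. At the GI50, growth is halved.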 Active and inactive are the calls of the source. Rule as the data show it: active = GI50 up to about 1.1 µM and inactive = higher."}
{"compound": "Nc1nc(O)c2c(ncn2CCO)n1", "values": [{"measurement": "GI50", "setting": "SK-OV-3", "value": "> 100 µM (inactive)"}, {"measurement": "GI50", "setting": "RPMI-8226", "value": "> 100 µM (inactive)"}, {"measurement": "GI50", "setting": "HCT-15", "value": "> 100", "unit": "µM"}, {"measurement": "GI50", "setting": "U-251", "value": "> 100 µM (inactive)"}, {"measurement": "GI50", "setting": "UACC-62", "value": "> 100 µM (inactive)"}, {"measurement": "GI50", "setting": "OVCAR-8", "value": "> 100 µM (inactive)"}, {"measurement": "GI50", "setting": "SR", "value": "> 100 µM (inactive)"}, {"measurement": "GI50", "setting": "HT-29", "value": "> 100 µM (inactive)"}, {"measurement": "GI50", "setting": "SF-295", "value": "> 100 µM (inactive)"}, {"measurement": "GI50", "setting": "SN12C", "value": "> 100 µM (inactive)"}, {"measurement": "GI50", "setting": "UACC-257", "value": "> 100 µM (inactive)"}, {"measurement": "GI50", "setting": "HOP-62", "value": "> 100 µM (inactive)"}, {"measurement": "GI50", "setting": "Malme-3M", "value": "> 100 µM (inactive)"}]}
{"compound": "NC1=NS(=O)(=O)Nc2nc(-c3ccccc3)c(-c3ccccc3)nc21", "values": [{"measurement": "GI50", "setting": "SK-OV-3", "value": "> 100 µM (inactive)"}, {"measurement": "GI50", "setting": "RPMI-8226", "value": "> 100 µM (inactive)"}, {"measurement": "GI50", "setting": "HCT-15", "value": "> 100", "unit": "µM"}, {"measurement": "GI50", "setting": "IGROV-1", "value": "> 100 µM (inactive)"}, {"measurement": "GI50", "setting": "U-251", "value": "> 100 µM (inactive)"}, {"measurement": "GI50", "setting": "UACC-62", "value": "> 100 µM (inactive)"}, {"measurement": "GI50", "setting": "OVCAR-8", "value": "> 100 µM (inactive)"}, {"measurement": "GI50", "setting": "SK-MEL-5", "value": "> 100 µM (inactive)"}, {"measurement": "GI50", "setting": "SR", "value": "> 100 µM (inactive)"}, {"measurement": "GI50", "setting": "K562", "value": "> 100 µM (inactive)"}, {"measurement": "GI50", "setting": "HT-29", "value": "> 100 µM (inactive)"}, {"measurement": "GI50", "setting": "SF-295", "value": "> 100 µM (inactive)"}, {"measurement": "GI50", "setting": "SN12C", "value": "> 100 µM (inactive)"}, {"measurement": "GI50", "setting": "UACC-257", "value": "> 100 µM (inactive)"}, {"measurement": "GI50", "setting": "Malme-3M", "value": "> 100 µM (inactive)"}]}
{"compound": "O=c1c2cccnc2ncn1CCN1CCCCC1", "values": [{"measurement": "GI50", "setting": "SK-OV-3", "value": "> 100 µM (inactive)"}, {"measurement": "GI50", "setting": "IGROV-1", "value": "> 100 µM (inactive)"}, {"measurement": "GI50", "setting": "U-251", "value": "> 100 µM (inactive)"}, {"measurement": "GI50", "setting": "UACC-62", "value": "> 100 µM (inactive)"}, {"measurement": "GI50", "setting": "OVCAR-8", "value": "> 100 µM (inactive)"}, {"measurement": "GI50", "setting": "SK-MEL-5", "value": "> 100 µM (inactive)"}, {"measurement": "GI50", "setting": "SR", "value": "> 100 µM (inactive)"}, {"measurement": "GI50", "setting": "K562", "value": "> 100 µM (inactive)"}, {"measurement": "GI50", "setting": "HT-29", "value": "> 100 µM (inactive)"}, {"measurement": "GI50", "setting": "SF-295", "value": "> 100 µM (inactive)"}, {"measurement": "GI50", "setting": "SN12C", "value": "> 100 µM (inactive)"}, {"measurement": "GI50", "setting": "HOP-62", "value": "> 100 µM (inactive)"}, {"measurement": "GI50", "setting": "Malme-3M", "value": "> 100 µM (inactive)"}]}
{"compound": "CC(C)(C)c1cc2c3c(c1)C(C(F)(F)F)(C(F)(F)F)O[Te]3(C)OC2(C(F)(F)F)C(F)(F)F", "values": [{"measurement": "GI50", "setting": "SK-OV-3", "value": "> 100 µM (inactive)"}, {"measurement": "GI50", "setting": "RPMI-8226", "value": "> 100 µM (inactive)"}, {"measurement": "GI50", "setting": "HCT-15", "value": "> 100", "unit": "µM"}, {"measurement": "GI50", "setting": "IGROV-1", "value": "> 100 µM (inactive)"}, {"measurement": "GI50", "setting": "U-251", "value": "> 100 µM (inactive)"}, {"measurement": "GI50", "setting": "UACC-62", "value": "> 100 µM (inactive)"}, {"measurement": "GI50", "setting": "OVCAR-8", "value": "> 10 µM (inactive)"}, {"measurement": "GI50", "setting": "SR", "value": "> 100 µM (inactive)"}, {"measurement": "GI50", "setting": "K562", "value": "> 100 µM (inactive)"}, {"measurement": "GI50", "setting": "HT-29", "value": "> 100 µM (inactive)"}, {"measurement": "GI50", "setting": "SF-295", "value": "> 100 µM (inactive)"}, {"measurement": "GI50", "setting": "SN12C", "value": "> 100 µM (inactive)"}, {"measurement": "GI50", "setting": "UACC-257", "value": "> 100 µM (inactive)"}, {"measurement": "GI50", "setting": "HOP-62", "value": "> 100 µM (inactive)"}, {"measurement": "GI50", "setting": "Malme-3M", "value": "> 100 µM (inactive)"}]}
{"compound": "Cn1ccc(=NS(=O)(=O)c2ccccc2)cc1", "values": [{"measurement": "GI50", "setting": "SK-OV-3", "value": "> 100 µM (inactive)"}, {"measurement": "GI50", "setting": "RPMI-8226", "value": "> 100 µM (inactive)"}, {"measurement": "GI50", "setting": "IGROV-1", "value": "> 100 µM (inactive)"}, {"measurement": "GI50", "setting": "U-251", "value": "> 100 µM (inactive)"}, {"measurement": "GI50", "setting": "OVCAR-8", "value": "> 100 µM (inactive)"}, {"measurement": "GI50", "setting": "SK-MEL-5", "value": "> 100 µM (inactive)"}, {"measurement": "GI50", "setting": "K562", "value": "> 100 µM (inactive)"}, {"measurement": "GI50", "setting": "HT-29", "value": "> 100 µM (inactive)"}, {"measurement": "GI50", "setting": "SF-295", "value": "> 100 µM (inactive)"}, {"measurement": "GI50", "setting": "A498", "value": "> 100 µM (inactive)"}, {"measurement": "GI50", "setting": "UACC-257", "value": "> 100 µM (inactive)"}, {"measurement": "GI50", "setting": "HOP-62", "value": "> 100 µM (inactive)"}, {"measurement": "GI50", "setting": "Malme-3M", "value": "> 100 µM (inactive)"}]}
{"compound": "COC(=O)/C(C#N)=C1\\CCc2ccccc21", "values": [{"measurement": "GI50", "setting": "SK-OV-3", "value": "> 100 µM (inactive)"}, {"measurement": "GI50", "setting": "RPMI-8226", "value": "> 100 µM (inactive)"}, {"measurement": "GI50", "setting": "HCT-15", "value": "> 100", "unit": "µM"}, {"measurement": "GI50", "setting": "IGROV-1", "value": "> 100 µM (inactive)"}, {"measurement": "GI50", "setting": "UACC-62", "value": "> 100 µM (inactive)"}, {"measurement": "GI50", "setting": "OVCAR-8", "value": "> 100 µM (inactive)"}, {"measurement": "GI50", "setting": "SK-MEL-5", "value": "> 100 µM (inactive)"}, {"measurement": "GI50", "setting": "K562", "value": "> 100 µM (inactive)"}, {"measurement": "GI50", "setting": "HT-29", "value": "> 100 µM (inactive)"}, {"measurement": "GI50", "setting": "SF-295", "value": "> 100 µM (inactive)"}, {"measurement": "GI50", "setting": "A498", "value": "> 100 µM (inactive)"}, {"measurement": "GI50", "setting": "SN12C", "value": "> 100 µM (inactive)"}, {"measurement": "GI50", "setting": "UACC-257", "value": "> 100 µM (inactive)"}, {"measurement": "GI50", "setting": "Malme-3M", "value": "> 100 µM (inactive)"}]}
{"compound": "CC1NS(=O)(=O)N(C)C1=O", "note": "(stereo not drawn)", "values": [{"measurement": "GI50", "setting": "SK-OV-3", "value": "> 100 µM (inactive)"}, {"measurement": "GI50", "setting": "RPMI-8226", "value": "> 100 µM (inactive)"}, {"measurement": "GI50", "setting": "HCT-15", "value": "> 100", "unit": "µM"}, {"measurement": "GI50", "setting": "IGROV-1", "value": "> 100 µM (inactive)"}, {"measurement": "GI50", "setting": "U-251", "value": "> 100 µM (inactive)"}, {"measurement": "GI50", "setting": "UACC-62", "value": "> 100 µM (inactive)"}, {"measurement": "GI50", "setting": "OVCAR-8", "value": "> 100 µM (inactive)"}, {"measurement": "GI50", "setting": "SK-MEL-5", "value": "> 100 µM (inactive)"}, {"measurement": "GI50", "setting": "SR", "value": "> 100 µM (inactive)"}, {"measurement": "GI50", "setting": "K562", "value": "> 100 µM (inactive)"}, {"measurement": "GI50", "setting": "SF-295", "value": "> 100 µM (inactive)"}, {"measurement": "GI50", "setting": "SN12C", "value": "> 100 µM (inactive)"}, {"measurement": "GI50", "setting": "UACC-257", "value": "> 100 µM (inactive)"}, {"measurement": "GI50", "setting": "HOP-62", "value": "> 100 µM (inactive)"}, {"measurement": "GI50", "setting": "Malme-3M", "value": "> 100 µM (inactive)"}]}
